Key:
Experiment in all cases: relative viability (nuclei count vs DMSO), 5 days (fraction); higher = more cells survive
Zosuquidar + Vorinostat = compound: O[C@@H](COc1cccc2ncccc12)CN1CCN([C@@H]2c3ccccc3[C@@H]3[C@H](c4ccccc42)C3(F)F)CC1 [Zosuquidar] + O=C(CCCCCCC(=O)Nc1ccccc1)NO [Vorinostat] (partner 1 µM)
Procedure, shortened: (§1)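 Relative viability was taken as the ratio of nuclei in treated wells to nuclei in vehicle wells. Lung cancer cell lines in 1536-well plates received compounds by pin tool one day after seeding, either one drug alone or a fixed anchor-drug dose plus five library-drug doses (not always all listed) in √10 steps. Nuclei were counted on 4× images after 5 days of treatment, and values are medians of duplicate plates.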

Kobe2602 + Luminespib = compound: C1=CC(=CC=C1NC(=S)NNC2=C(C=C(C=C2[N+](=O)[O-])C(F)(F)F)[N+](=O)[O-])F [Kobe2602] + CCNC(=O)c1noc(-c2cc(C(C)C)c(O)cc2O)c1-c1ccc(CN2CCOCC2)cc1 [Luminespib] (partner 0.01 µM)
Procedure, shortened: as §1

Cabozantinib + OSI-027 = compound: COc1cc2nccc(Oc3ccc(NC(=O)C4(C(=O)Nc5ccc(F)cc5)CC4)cc3)c2cc1OC [Cabozantinib] + COc1cccc2cc(-c3nc([C@H]4CC[C@H](C(=O)O)CC4)n4ncnc(N)c34)[nH]c12 [OSI-027] (partner 0.5 µM)
Procedure, shortened: as §1

Kobe2602 + Dasatinib = compound: C1=CC(=CC=C1NC(=S)NNC2=C(C=C(C=C2[N+](=O)[O-])C(F)(F)F)[N+](=O)[O-])F [Kobe2602] + Cc1nc(Nc2ncc(C(=O)Nc3c(C)cccc3Cl)s2)cc(N2CCN(CCO)CC2)n1 [Dasatinib] (partner 0.075 µM)
Procedure, shortened: as §1

| Cell Line | relative viability (Zosuquidar + Vorinostat; first compound 0.01 µM) | relative viability (Zosuquidar + Vorinostat; first compound 0.03162 µM) | relative viability (Zosuquidar + Vorinostat; first compound 0.1 µM) | relative viability (Zosuquidar + Vorinostat; first compound 0.3162 µM) | relative viability (Zosuquidar + Vorinostat; first compound 1 µM) | relative viability (Kobe2602 + Luminespib; first compound 0.2 µM) | relative viability (Kobe2602 + Luminespib; first compound 0.6325 µM) | relative viability (Kobe2602 + Luminespib; first compound 2 µM) | relative viability (Kobe2602 + Luminespib; first compound 6.325 µM) | relative viability (Kobe2602 + Luminespib; first compound 20 µM) | relative viability (Cabozantinib + OSI-027; first compound 0.02 µM) | relative viability (Cabozantinib + OSI-027; first compound 0.06325 µM) | relative viability (Cabozantinib + OSI-027; first compound 0.2 µM) | relative viability (Cabozantinib + OSI-027; first compound 0.6325 µM) | relative viability (Cabozantinib + OSI-027; first compound 2 µM) | relative viability (Kobe2602 + Dasatinib; first compound 0.2 µM) | relative viability (Kobe2602 + Dasatinib; first compound 0.6325 µM) | relative viability (Kobe2602 + Dasatinib; first compound 2 µM) | relative viability (Kobe2602 + Dasatinib; first compound 6.325 µM) | relative viability (Kobe2602 + Dasatinib; first compound 20 µM) |
| --- | --- | --- | --- | --- | --- | --- | --- | --- | --- | --- | --- | --- | --- | --- | --- | --- | --- | --- | --- | --- |
| LXF-289 | 0.727 | 0.759 | 0.72 | 0.788 | 0.78 | 0.7 | 0.799 | 0.637 | 0.606 | 0.708 | 0.612 | 0.856 | 0.753 | 0.816 | 0.78 | 0.253 | 0.23 | 0.248 | 0.208 | 0.245 |
| NCI-H23 | 0.536 | – | 0.57 | 0.695 | 0.662 | 0.248 | 0.201 | 0.227 | 0.214 | 0.202 | – | 0.729 | 0.645 | 0.624 | 0.489 | 0.697 | 0.879 | 0.776 | 0.817 | 1.02 |
| NCI-H322M | 0.916 | 1.08 | 0.652 | 0.896 | 0.731 | 0.895 | 0.944 | 0.855 | 0.478 | 1.06 | 0.475 | 0.596 | 0.486 | 0.572 | 0.54 | 0.254 | 0.25 | 0.245 | 0.241 | 0.297 |
| NCI-H358 | 0.662 | 0.8 | 0.634 | 0.646 | 0.639 | 0.364 | 0.324 | 0.237 | 0.477 | 0.349 | 0.641 | 0.888 | 0.628 | 0.74 | 0.67 | 0.176 | 0.167 | 0.209 | 0.172 | 0.186 |
| NCI-H441 | 0.666 | 0.97 | 0.728 | 0.867 | 0.962 | 0.328 | 0.374 | 0.327 | 0.358 | 0.296 | 0.428 | 0.653 | 0.663 | 0.564 | 0.559 | 0.66 | 0.606 | 0.71 | 0.699 | 0.621 |
| NCI-H460 | 0.658 | 0.747 | 0.687 | 0.776 | 0.739 | 0.0275 | 0.0348 | 0.0337 | 0.0344 | 0.0251 | 0.761 | 0.927 | 0.664 | 0.624 | 0.584 | 0.504 | 0.518 | 0.507 | 0.49 | 0.575 |
| NCI-H520 | 0.639 | 0.51 | 0.71 | 0.664 | 0.835 | 0.256 | 0.193 | 0.224 | 0.206 | 0.215 | 0.215 | 0.289 | 0.247 | 0.286 | 0.218 | 0.205 | 0.233 | 0.197 | 0.222 | 0.202 |
| NCI-H522 | 0.909 | 0.796 | 0.927 | 0.887 | 0.871 | 1.08 | 1.25 | 1.31 | 1.09 | 1.03 | 0.585 | 0.79 | 0.7 | 0.766 | 0.767 | 0.83 | 0.977 | 0.914 | 0.874 | 0.952 |
| NCI-H596 | 0.555 | 0.637 | 0.709 | 0.761 | 0.661 | 1.03 | 0.922 | 1.03 | 0.844 | 0.873 | 0.922 | 0.738 | 0.65 | 0.667 | 0.54 | 0.57 | 0.678 | 0.57 | 0.661 | 0.644 |
| NCI-H647 | 0.623 | 0.593 | 0.667 | 0.814 | 0.518 | 0.259 | 0.188 | 0.152 | 0.112 | 0.225 | 0.589 | 0.633 | 0.641 | 0.636 | 0.548 | 0.244 | 0.338 | 0.158 | 0.17 | 0.2 |
| NCI-H650 | 0.452 | 0.414 | 0.397 | 0.577 | 0.435 | 0.754 | 0.897 | 0.796 | 0.748 | 0.717 | – | 0.567 | 0.552 | 0.544 | 0.535 | 0.429 | 0.564 | 0.501 | 0.517 | 0.5 |
| NCI-H661 | 0.802 | 0.834 | 0.763 | 0.828 | 0.778 | 0.945 | 0.904 | 0.948 | 0.946 | 0.9 | 0.667 | 0.686 | 0.673 | 0.675 | 0.687 | 0.799 | 1.09 | 0.904 | 0.847 | 0.758 |
| NCI-H727 | 1.12 | 1.32 | – | 1.11 | 1.29 | 0.581 | 0.516 | 0.4 | 0.407 | 0.414 | 0.491 | 0.73 | 0.58 | 0.617 | 0.445 | 0.376 | 0.384 | 0.342 | 0.484 | 0.392 |
| NCI-H838 | 0.744 | 0.793 | 0.791 | 0.755 | 0.806 | 0.353 | 0.395 | 0.308 | 0.268 | 0.278 | 0.458 | 0.38 | 0.339 | 0.414 | 0.366 | 0.264 | 0.309 | 0.249 | 0.291 | 0.289 |
| NCI-H1355 | 0.621 | 0.644 | 0.602 | 0.652 | 0.669 | 0.795 | 0.686 | 0.607 | 0.775 | 0.75 | 0.291 | 0.477 | 0.412 | 0.458 | 0.411 | 0.647 | 0.737 | 0.683 | 0.664 | 0.627 |
| NCI-H1395 | 0.746 | 0.783 | – | 1 | 0.698 | 0.691 | 0.869 | 0.815 | 0.726 | 0.662 | 0.514 | 0.675 | 0.632 | 0.69 | 0.573 | 0.468 | 0.456 | 0.452 | 0.442 | 0.442 |
| NCI-H1437 | 0.849 | 0.957 | 0.851 | 0.857 | 0.832 | 1.12 | 1.11 | 1.1 | 1.14 | 0.984 | 0.896 | 0.963 | 0.882 | 0.921 | 0.922 | 0.498 | 0.431 | 0.351 | 0.459 | 0.615 |
| NCI-H1650 | 0.584 | 0.587 | 0.532 | 0.665 | 0.546 | 0.188 | 0.185 | 0.177 | 0.211 | 0.178 | 0.597 | 0.724 | 0.438 | 0.622 | 0.484 | 0.285 | 0.396 | 0.285 | 0.255 | 0.227 |
| NCI-H1651 | 0.576 | 0.604 | 0.471 | 0.607 | 0.501 | 0.673 | 0.911 | 0.642 | 0.758 | 0.93 | 0.725 | 0.69 | 0.612 | 0.796 | 0.581 | 0.596 | 0.362 | 0.429 | 0.402 | 0.37 |
| NCI-H1666 | 1 | 0.868 | 1.01 | 1.04 | 1.03 | 0.975 | 1.08 | 1 | 1.05 | 1.08 | 0.694 | 0.836 | 0.816 | 0.846 | 0.913 | 0.833 | 0.825 | 0.777 | 0.899 | 0.735 |
| NCI-H1734 | 0.764 | 0.832 | 0.883 | 0.839 | 0.887 | 0.196 | 0.175 | 0.167 | 0.187 | 0.173 | 0.433 | 0.611 | 0.59 | 0.586 | 0.573 | 0.425 | 0.543 | 0.432 | 0.478 | 0.468 |
| NCI-H1755 | 0.657 | 0.883 | 0.694 | 0.845 | 0.729 | 0.334 | 0.425 | 0.414 | 0.395 | 0.322 | 0.627 | 0.729 | 0.775 | 0.585 | 0.575 | 0.408 | 0.407 | 0.359 | 0.408 | 0.437 |
| NCI-H1793 | 0.745 | – | – | 1.06 | 0.629 | 0.185 | 0.201 | 0.217 | 0.47 | 0.205 | 0.196 | 0.254 | 0.198 | 0.253 | 0.197 | 0.367 | 0.4 | 0.361 | 0.397 | 0.398 |
| NCI-H1915 | 0.536 | 0.512 | 0.457 | 0.57 | 0.549 | 0.778 | 0.875 | 0.783 | 0.852 | 0.693 | 0.627 | 0.623 | 0.631 | 0.589 | 0.593 | 0.336 | 0.338 | 0.289 | 0.318 | 0.341 |
| NCI-H1944 | 0.524 | 0.528 | 0.543 | 0.672 | 0.535 | 0.74 | 0.801 | 0.608 | 0.739 | 0.645 | 0.282 | 0.425 | 0.389 | 0.444 | 0.402 | 0.255 | 0.223 | 0.233 | 0.213 | 0.245 |
| NCI-H1975 | 0.745 | 0.681 | 0.75 | 0.746 | 0.751 | 0.365 | 0.29 | 0.229 | 0.216 | 0.288 | 0.676 | 0.763 | 0.668 | 0.679 | 0.543 | 0.31 | 0.371 | 0.334 | 0.302 | 0.23 |
| NCI-H1993 | 0.958 | 0.603 | – | 0.835 | 0.885 | 0.673 | 0.794 | 0.605 | 0.658 | 0.769 | 0.511 | 0.528 | 0.569 | 0.519 | 0.543 | 0.575 | 0.501 | 0.544 | 0.532 | 0.607 |

— the supplement of paper PMC10307832
